# Measurements published in patent US10137202B2 (priority 2014, dated 2018).
# Square brackets hold non-standard residues; d marks the D form. Peptide text beside a SMILES is read from it. * marks the point of attachment. Dolaproine = CO[C@@H]([C@@H]1CCCN1)[C@@H](C)C(=O)O; Dil = CC[C@H](C)[C@H](NC)[C@@H](CC(=O)O)OC; X3 = C[C@@H](N*)[C@@H](O)c1ccccc1; NMeV = CN[C@H](C(=O)O)C(C)C
# Test system: HT1080 cells
# Type: cell-based, human
# Details: read-out: IC50 (CPA assay; nM)
smiles,measurement,value
"CC[C@H](C)[C@@H]([C@@H](CC(=O)N1CCC[C@H]1[C@H](OC)[C@@H](C)C(=O)N[C@H](C)[C@@H](O)c1ccccc1)OC)N(C)C(=O)[C@@H](NC(=O)[C@@H](NC)C(C)C)C(C)C [MMAE, reference compound] (H-[NMeV]V[Dil][Dolaproine]-X3)",IC50,0.1 to 0.6 nM
